Legend:
[1] = test system: CD4+ T cells (ConA-stimulated PBMC); experiment: ConA mitogen-induced CD4+ T cell proliferation in CFSE-stained PBMC (PBMC responder/suppression assay); type: cell-based, canine; settings: for effect of co-added inhibitor on WJ-MSC EV mediated suppression of CD4+ T cell division: 10 μM TGF-βRI inhibitor, 50 μM ZM241385, 0.1 μg/ml neutralizing antibody
Experimental: Serum-free culture medium from canine Wharton's Jelly mesenchymal stem cells (WJ-MSC: CD44^+, CD90^+, CD34^−, CD45^−, MHCII^−, n=6 cell lines) was collected after 48 hours, and extracellular vesicles (WJ-EV) were isolated by differential centrifugation. WJ-EV output was assessed using single vesicle nanoparticle tracking analysis (NTA). CFSE-stained peripheral blood mononuclear cells (PBMC) were collected from healthy dogs (n=8), exposed to Concanavalin A mitogen (ConA; 5 μg/ml) and co-incubated with WJ-MSC (1:10) across transwell membrane (0.4 μm pore size) or with WJ-MSC EV (1:10^4)±10 μM SB431542 (TGFβR1 inhibitor) or TGF-β neutralizing (e.g., inhibiting) antibody (Ab) for 72 hours. Analysis of CFSE fluorescence using FlowJo (v7.6.5) yielded % CD4^+ cells that had undergone division (T-cell proliferation).
PBMC responder assay: Twelve healthy adult purpose-bread Beagle dogs (5 neutered males, 7 spayed females) housed at the Laboratory Animal Medicine department at the Cummings School of Veterinary Medicine at Tufts University served as blood donors under an approved protocol. […] or WJ-MSC were tested in triplicate against a minimum of 3 different PBMC donor cell samples (see Figure legends for ‘n’ of each experiment). Healthy status was confirmed by clinical examination, and hematological and serum biochemical testing within six months of blood sampling. All dogs were fasted for 12 hours prior to peripheral blood sampling. Peripheral blood samples were taken via jugular venipuncture using a 21 gauge needle, and blood was immediately placed into an EDTA collection tube and rotated 1-2 times gently. Blood was diluted 1:1 with cold PBS or centrifuged (1300×g, 10 min) prior to dilution 1:2 in PBS, followed by density-gradient centrifugation using Ficoll-Paque (density 1.077; GE Healthcare Life Sciences) to harvest peripheral blood mononuclear cells (PBMC). PBMC were washed in RPMI (Life Technologies) supplemented with 10% heat-inactivated fetal bovine serum (Gibco), […] (Life Technologies), 100 μM β-mercaptoethanol (Sigma-Aldrich), 10,000 U/ml penicillin-streptomycin, 2 mM L-glutamine (Life Technologies), and 2.2 mg/mL of sodium bicarbonate (Thermo Fisher Scientific) (complete RPMI, ‘cRPMI’). For mitogen induced lymphocytes proliferation assays, PBMC were suspended in 1 ml cRPMI and 0.5 μof 10 mM carboxyfluorescein succinimidyl ester (CFSE, Thermo Fisher Scientific) and were incubated (10 min). For initial characterization of WJ-MSC effects on responder PBMC, PBMC were plated on a 24-well plate on the top of a 0.4 μm Transwell (Corning) across from the WJ-MSC in a 10:1 ratio (PBMC:MSC) in a total volume of 1 ml medium (n=3 technical replicates/sample). All plates were incubated at 37° C. in the dark for 72 hours prior to analysis.
Dose-responses of TV MSC-EV: To investigate the dose response of PBMC to WJ-MSC EV, the […] were plated on a 96-well plate in cRPMI with addition of 1 mM ATP, with or without 5 μg/ml Concanavalin A (ConA, Sigma-Aldrich). Responder PBMC were incubated with WJ-MSC EV in a total volume of 200 μL medium (n=3 technical replicates per sample). PBMC were incubated with WJ-MSC EV in a 1:10^2, 1:10^3, or 1:10^4 (PBMC:EV) ratio. After 72 hours of incubation, the PBMC were collected and surface stained for CD4 (rat anti-canine CD4-Alexa 647, clone YKIX302.9, AbD Serotec). Cells were stained for 30 minutes, washed twice with cold PBS and 5% FBS, and resuspended in 200 μl PBS and 5% FBS with 5 μl 7AAD (Becton Dickinson) for analysis by flow cytometry (Accuri C6, Becton Dickinson). The effect of WJ-MSC or WJ-MSC EV on CD4-positive (CD4^+) T cell (i.e., T helper cell) proliferation (percentage of cells proliferating, number of divisions for proliferating cells) was measured by evaluating CFSE fluorescence utilizing the FlowJo® proliferation platform (FlowJo, V10, Ashland, Oreg.) after gating on the viable CD4^+ lymphocyte population. […]

WJ-MSC = experiment: EV (exosome) output from WJ-MSC under GW4869, by nanoparticle tracking analysis; type: cell-based, canine
Experimental: Particle size distribution using nanoparticle tracking analysis (NTA): Samples were analyzed using a NanoSight N300 unit (Malvern) equipped with a 488 nm (blue) laser module and Nanoparticle Tracking Analysis 3.0 software. All samples were diluted in sterile PBS to a concentration of 1-10×10^8 particles/mL for analysis. Specific NTA settings were optimized for each sample, with fixed settings of temperature (23° C.), screen gain (1.0), infusion flow rate (5 μL/min), and camera level set at 12-14 depending on sample characteristics. Five videos were recorded for each sample (30-120 s video length) with all settings remaining constant within each sample source to minimize variation. […] The NTA unit was periodically evaluated for accuracy of size determination using polystyrene beads of known size (100 and 200 nm).
EV depletion and enzymatic digestion experiments: EV were isolated as described, resuspended in 5 ml PBS, and divided into 5 fractions of 1 ml each. […] The EV sediment was resuspended in PBS and particle numbers were quantified using nanoparticle tracking analysis (NTA) as described supra. […] The retentate was resuspended in 1 ml PBS, and particle content was evaluated by NTA. […] As well, WJ-MSC EV, EV (10^4:1 PBMC) from conditioned medium of non-MSC fibroblasts (canine left ventricular cardiac fibroblasts) were evaluated for suppression of PBMC.

IFN-γ: interferon-gamma used to pre-condition WJ-MSC
further suppression by WJ-MSC or WJ-MSC EV after pre-conditioning of WJ-MSC ([1]; WJ-MSC pretreated with 500 ng IFN-γ for 48 hours): not statistically significant

O=C(/C=C/c1ccc(/C=C/C(=O)Nc2ccc(C3=NCCN3)cc2)cc1)Nc1ccc(C2=NCCN2)cc1 [GW4869]
release of WJ-MSC-EV (particles released in 48 hours) (WJ-MSC; increasing concentrations, n=3 WJ-MSC lines): decreased | concentration giving maximal suppression of exosome output without unacceptable loss of viability (WJ-MSC; increasing doses applied to WJ-MSC, 48 hours): 5 to 10 µM | T cell division with WJ-MSC pre-treated with EV-release inhibitor ([1]; WJ-MSC pre-treated 48 hours at 6 μM, then across Transwell from PBMC with ConA, untreated WJ-MSC 28.2±1.4%): 51.7±13.5%

Nc1nc(NCCc2ccc(O)cc2)nc2nc(-c3ccco3)nn12 [ZM241385]
effect of co-added inhibitor on WJ-MSC EV mediated suppression of CD4+ T cell division ([1]; 72 h): significantly reduced

soluble TGF-β1: recombinant human TGF-β1 (R&D Systems)
suppression of mitogen driven T cell division by exogenous TGF-β ([1]; 5 ng/ml added to ConA stimulated PBMC): not | suppression of mitogen driven T cell division by exogenous TGF-β ([1]; 10 ng/ml added to ConA stimulated PBMC): suppressed | suppression of mitogen driven T cell division by exogenous TGF-β ([1]; 50 ng/ml added to ConA stimulated PBMC): suppressed | % CD4+ division (CD4+ cells that had undergone division) ([1]; Example 2, ConA 5 μg/ml, 72 h, WJ-MSC 1:10 across transwell, WJ-EV 1:10^4, ConA alone 60±17%): 21±10%

Triton-X
effect of pre-treating WJ-MSC EV on their suppression of CD4+ T cell division ([1]; 0.1% Triton-X, 2 μg/ml RNAse A, proteinase K 30 min 37°C, heparinase 0.006 U/ml 3 hours, 10^4 EV:1 PBMC): completely abrogated

NC(=O)c1ccc(-c2nc(-c3ccc4c(c3)OCO4)c(-c3ccccn3)[nH]2)cc1 [SB431542]
effect of co-added inhibitor on WJ-MSC EV mediated suppression of CD4+ T cell division ([1]; 72 h): significantly reduced | % CD4+ division ([1]; Example 2, 10 μM SB431542 added to ConA+WJ-EV, ConA+WJ-EV alone 23±13%): 52±17%

From patent publication US20200392219A1, “EXTRACELLULAR VESICLES COMPRISING MEMBRANE-TETHERED TGF-BETA, COMPOSITIONS AND METHODS OF USE THEREOF” (TRUSTEES OF TUFTS COLLEGE, priority 2017, published 2020)
